Measurements reported in PubChem BioAssay AID2060622 (Molecular Pharmacology Branch, DTP, NCI, 2025).

System: 242566-281-R-J2-PDC complex spheroid viability
Assay: Anticancer human tumor 242566-281-R-J2-PDC patient-derived pancreatic carcinoma cell line growth inhibition [CLK]
Settings: for IC50: curve of first compound; for viability, T/C: stronger effect = lower value
In short: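 Patient-derived tumor cells grown as complex spheroids with HUVEC endothelial cells and mesenchymal stem cells, treated with drug combinations. Concentrations descend in half-log steps from near clinical Cmax, or from 10 microM if Cmax unknown.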

[1] = second compound 0.0316 µM, first compound 0.0316 µM
[2] = second compound 0.0316 µM, first compound 0.1 µM
[3] = second compound 0.0316 µM, first compound 0.316 µM
[4] = second compound 0.0316 µM, first compound 1 µM
[5] = second compound 0.0316 µM, first compound 3.16 µM
[6] = second compound 0.0316 µM, first compound 10 µM
[7] = second compound 0.1 µM, first compound 0.0316 µM
[8] = second compound 0.1 µM, first compound 0.1 µM
[9] = second compound 0.1 µM, first compound 0.316 µM
[10] = second compound 0.1 µM, first compound 1 µM
[11] = second compound 0.1 µM, first compound 3.16 µM
[12] = second compound 0.1 µM, first compound 10 µM
[13] = second compound 0.316 µM, first compound 0.0316 µM
[14] = second compound 0.316 µM, first compound 0.1 µM
[15] = second compound 0.316 µM, first compound 0.316 µM
[16] = second compound 0.316 µM, first compound 1 µM
[17] = second compound 0.316 µM, first compound 3.16 µM
[18] = second compound 0.316 µM, first compound 10 µM
[19] = second compound 1 µM, first compound 0.0316 µM
[20] = second compound 1 µM, first compound 0.1 µM
[21] = second compound 1 µM, first compound 0.316 µM
[22] = second compound 1 µM, first compound 1 µM
[23] = second compound 1 µM, first compound 3.16 µM
[24] = second compound 1 µM, first compound 10 µM
[25] = second compound 3.16 µM, first compound 0.0316 µM
[26] = second compound 3.16 µM, first compound 0.1 µM
[27] = second compound 3.16 µM, first compound 0.316 µM
[28] = second compound 3.16 µM, first compound 1 µM
[29] = second compound 3.16 µM, first compound 3.16 µM
[30] = second compound 3.16 µM, first compound 10 µM
[31] = second compound 10 µM, first compound 0.0316 µM
[32] = second compound 10 µM, first compound 0.1 µM
[33] = second compound 10 µM, first compound 0.316 µM
[34] = second compound 10 µM, first compound 1 µM
[35] = second compound 10 µM, first compound 3.16 µM
[36] = second compound 10 µM, first compound 10 µM
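Further: spheroids exposed to compounds for 7 days before readout.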
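Wherever viability, T/C is given: 100% = DMSO vehicle control wells.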

`COc1ccc([C@@H](O)c2cc(-c3ncnc4cc(N5CCOCC5)ccc34)c(F)cc2Cl)nn1` + CN1CCN(c2cc(C(=O)Nc3cc4cc(-c5cnn(C)c5)ccc4cn3)ccn2)CC1 showed an IC50 (second compound 0.0316 µM) of over 10 µM, an IC50 (second compound 0.1 µM) of 6.17 µM and an IC50 (second compound 0.316 µM) of under 0.0316 µM. The IC50 (second compound 1 µM) was under 0.0316 µM, the IC50 (second compound 3.16 µM) was under 0.0316 µM and the IC50 (second compound 10 µM) was under 0.0316 µM. It also gave a viability, T/C [1] of 106%, a viability, T/C [2] of 104% and a viability, T/C [3] of 90.4%. It also gave a viability, T/C [4] of 87%, a viability, T/C [5] of 70.3% and a viability, T/C [6] of 50.1%. For the same compound, the viability, T/C [7] was 97.9%, the viability, T/C [8] was 85% and the viability, T/C [9] was 80.1%. For the same compound, the viability, T/C [10] was 73.6%, the viability, T/C [11] was 67.5% and the viability, T/C [12] was 38.8%. The viability, T/C [13] was 30.2%, the viability, T/C [14] was 22.3% and the viability, T/C [15] was 26.9%. It also gave a viability, T/C [16] of 20.3%, a viability, T/C [17] of 25% and a viability, T/C [18] of 11.8%. It also gave a viability, T/C [19] of 5.5%, a viability, T/C [20] of 4.93% and a viability, T/C [21] of 4.05%. It also gave a viability, T/C [22] of 4.46%, a viability, T/C [23] of 4.87% and a viability, T/C [24] of 5.56%. The viability, T/C [25] was 6.52%, the viability, T/C [26] was 6.92% and the viability, T/C [27] was 5.95%. The viability, T/C [28] was 6.56%, the viability, T/C [29] was 7.75% and the viability, T/C [30] was 6.44%. For the same compound, the viability, T/C [31] was 1.12%, the viability, T/C [32] was 1.29% and the viability, T/C [33] was 1.09%. The viability, T/C [34] was 1.69%, the viability, T/C [35] was 2.12% and the viability, T/C [36] was 1.23%.

`C=CC(=O)N1CCN(c2nc(=O)n(-c3c(C)ccnc3C(C)C)c3nc(-c4c(O)cccc4F)c(F)cc23)C(C)C1` (stereo not drawn) + CNC(=O)c1ccc(Nc2nc(OC3CCCC3)c3c(-c4ccc5nc(C)oc5c4)c[nH]c3n2)c(OC)c1 was tested, and the IC50 (second compound 0.0316 µM) was over 10 µM, the IC50 (second compound 0.1 µM) was over 10 µM and the IC50 (second compound 0.316 µM) was over 10 µM. The IC50 (second compound 1 µM) was over 10 µM, the IC50 (second compound 3.16 µM) was over 10 µM and the IC50 (second compound 10 µM) was over 10 µM. It also gave a viability, T/C [1] of 104%, a viability, T/C [2] of 94% and a viability, T/C [3] of 120%. For the same compound, the viability, T/C [4] was 128%, the viability, T/C [5] was 89% and the viability, T/C [6] was 73.9%. It also gave a viability, T/C [7] of 101%, a viability, T/C [8] of 115% and a viability, T/C [9] of 87.7%. It also gave a viability, T/C [10] of 104%, a viability, T/C [11] of 88.1% and a viability, T/C [12] of 70.9%. The viability, T/C [13] was 95.7%, the viability, T/C [14] was 92% and the viability, T/C [15] was 74.3%. For the same compound, the viability, T/C [16] was 87.1%, the viability, T/C [17] was 71.1% and the viability, T/C [18] was 67.3%. The viability, T/C [19] was 79.3%, the viability, T/C [20] was 68.1% and the viability, T/C [21] was 72.5%. It also gave a viability, T/C [22] of 69.6%, a viability, T/C [23] of 70.7% and a viability, T/C [24] of 57.2%. The viability, T/C [25] was 60.5%, the viability, T/C [26] was 52.6% and the viability, T/C [27] was 52.9%. The viability, T/C [28] was 56.4%, the viability, T/C [29] was 58.1% and the viability, T/C [30] was 54.8%. It also gave a viability, T/C [31] of 54.5%, a viability, T/C [32] of 53.6% and a viability, T/C [33] of 58.8%. For the same compound, the viability, T/C [34] was 53%, the viability, T/C [35] was 53.6% and the viability, T/C [36] was 51.8%.

`CCCS(=O)(=O)Nc1ccc(F)c(C(=O)c2c[nH]c3ncc(-c4ccc(Cl)cc4)cc23)c1F` + CNC(=O)c1ccc(Nc2nc(OC3CCCC3)c3c(-c4ccc5nc(C)oc5c4)c[nH]c3n2)c(OC)c1 showed an IC50 (second compound 0.0316 µM) of 5.93 µM, an IC50 (second compound 0.1 µM) of 5.31 µM and an IC50 (second compound 0.316 µM) of 3.85 µM. For the same compound, the IC50 (second compound 1 µM) was 2.14 µM, the IC50 (second compound 3.16 µM) was 0.379 µM and the IC50 (second compound 10 µM) was under 0.0316 µM. For the same compound, the viability, T/C [1] was 89.8%, the viability, T/C [2] was 99.1% and the viability, T/C [3] was 86.6%. It also gave a viability, T/C [4] of 125%, a viability, T/C [5] of 104% and a viability, T/C [6] of 7.61%. For the same compound, the viability, T/C [7] was 82.2%, the viability, T/C [8] was 92.3% and the viability, T/C [9] was 88.2%. For the same compound, the viability, T/C [10] was 76.7%, the viability, T/C [11] was 87.9% and the viability, T/C [12] was 6.61%. It also gave a viability, T/C [13] of 74.5%, a viability, T/C [14] of 81.1% and a viability, T/C [15] of 59.9%. For the same compound, the viability, T/C [16] was 63.1%, the viability, T/C [17] was 61.3% and the viability, T/C [18] was 10.2%. For the same compound, the viability, T/C [19] was 75.2%, the viability, T/C [20] was 63.2% and the viability, T/C [21] was 66.7%. For the same compound, the viability, T/C [22] was 64.8%, the viability, T/C [23] was 42.6% and the viability, T/C [24] was 11.8%. It also gave a viability, T/C [25] of 54.9%, a viability, T/C [26] of 50.6% and a viability, T/C [27] of 50.2%. It also gave a viability, T/C [28] of 44.6%, a viability, T/C [29] of 26.5% and a viability, T/C [30] of 16.4%. The viability, T/C [31] was 49.2%, the viability, T/C [32] was 47% and the viability, T/C [33] was 53%. For the same compound, the viability, T/C [34] was 47%, the viability, T/C [35] was 30.1% and the viability, T/C [36] was 17.9%.

`COC1C=CCC(C)C(C)S(=O)(=O)NC(=O)c2ccc3c(c2)N(CC2CCC21)CC1(CCCc2cc(Cl)ccc21)CO3` (stereo not drawn) + CNC(=O)c1ccc(Nc2nc(OC3CCCC3)c3c(-c4ccc5nc(C)oc5c4)c[nH]c3n2)c(OC)c1 was tested, and the IC50 (second compound 0.0316 µM) was 5.24 µM, the IC50 (second compound 0.1 µM) was 6.17 µM and the IC50 (second compound 0.316 µM) was 0.404 µM. The IC50 (second compound 1 µM) was 0.139 µM, the IC50 (second compound 3.16 µM) was under 0.0316 µM and the IC50 (second compound 10 µM) was under 0.0316 µM. For the same compound, the viability, T/C [1] was 95.8%, the viability, T/C [2] was 91.9% and the viability, T/C [3] was 72%. For the same compound, the viability, T/C [4] was 84.9%, the viability, T/C [5] was 67.5% and the viability, T/C [6] was 29.1%. For the same compound, the viability, T/C [7] was 94.7%, the viability, T/C [8] was 74.8% and the viability, T/C [9] was 65.4%. For the same compound, the viability, T/C [10] was 84.3%, the viability, T/C [11] was 91.4% and the viability, T/C [12] was 26.8%. For the same compound, the viability, T/C [13] was 84.9%, the viability, T/C [14] was 64.7% and the viability, T/C [15] was 50.6%. It also gave a viability, T/C [16] of 42.3%, a viability, T/C [17] of 39.1% and a viability, T/C [18] of 25.9%. For the same compound, the viability, T/C [19] was 64.9%, the viability, T/C [20] was 55.3% and the viability, T/C [21] was 38.5%. The viability, T/C [22] was 29.1%, the viability, T/C [23] was 25.6% and the viability, T/C [24] was 19.6%. The viability, T/C [25] was 49.6%, the viability, T/C [26] was 40.1% and the viability, T/C [27] was 30.7%. It also gave a viability, T/C [28] of 20.8%, a viability, T/C [29] of 18.1% and a viability, T/C [30] of 14.2%. The viability, T/C [31] was 42.9%, the viability, T/C [32] was 41.2% and the viability, T/C [33] was 30.8%. It also gave a viability, T/C [34] of 18.3%, a viability, T/C [35] of 13.5% and a viability, T/C [36] of 12.1%.
